Measurements published in ChEMBL document CHEMBL4808219, “Exploration of Benzo[b]carbazole-6,11-diones as anticancer agents: Synthesis and studies of hTopoIIα inhibition and apoptotic effects” (Bioorg Med Chem Lett, 2021).
The source made the active and inactive calls. No cut-off for these calls is given here.

Tests used:
[1] = tested on: MDA-MB-231; experiment: Cytotoxicity against human MDA-MB-231 cells assessed as reduction in cell viability incubated for 48 hrs by MTT assay; format: functional, cell-based
[2] = tested on: MCF7; experiment: Cytotoxicity against human MCF7 cells assessed as reduction in cell viability incubated for 48 hrs by MTT assay; format: functional, cell-based
[3] = tested on: HEK-293T; experiment: Cytotoxicity against human HEK293T cells assessed as reduction in cell viability incubated for 48 hrs by MTT assay; format: cell-based
[4] = Cytotoxicity against human H357 cells assessed as reduction in cell viability incubated for 48 hrs by MTT assay; format: functional, cell-based
[5] = target: DNA topoisomerase 2-alpha (Homo sapiens) (UniProt P11388); experiment: Inhibition of human topoisomerase 2alpha assessed as reduction in decatenation of kinetoplast DNA by agarose gel electrophoresis method
[6] = tested on: MCF-10A; experiment: Cytotoxicity against human MCF-10A cells; format: cell-based
[7] = tested on: MDA-MB-231; experiment: Cytotoxicity against human MDA-MB-231 cells assessed as reduction in cell survival by clonogenic assay; format: functional, cell-based
[8] = Homo sapiens, MDA-MB-231, 48 h, read-out: IC50
[9] = Homo sapiens, MCF7, 48 h, read-out: IC50
[10] = Homo sapiens, H357, 48 h, read-out: IC50

Sequence of DNA topoisomerase 2-alpha (Homo sapiens) (P11388 whole entry): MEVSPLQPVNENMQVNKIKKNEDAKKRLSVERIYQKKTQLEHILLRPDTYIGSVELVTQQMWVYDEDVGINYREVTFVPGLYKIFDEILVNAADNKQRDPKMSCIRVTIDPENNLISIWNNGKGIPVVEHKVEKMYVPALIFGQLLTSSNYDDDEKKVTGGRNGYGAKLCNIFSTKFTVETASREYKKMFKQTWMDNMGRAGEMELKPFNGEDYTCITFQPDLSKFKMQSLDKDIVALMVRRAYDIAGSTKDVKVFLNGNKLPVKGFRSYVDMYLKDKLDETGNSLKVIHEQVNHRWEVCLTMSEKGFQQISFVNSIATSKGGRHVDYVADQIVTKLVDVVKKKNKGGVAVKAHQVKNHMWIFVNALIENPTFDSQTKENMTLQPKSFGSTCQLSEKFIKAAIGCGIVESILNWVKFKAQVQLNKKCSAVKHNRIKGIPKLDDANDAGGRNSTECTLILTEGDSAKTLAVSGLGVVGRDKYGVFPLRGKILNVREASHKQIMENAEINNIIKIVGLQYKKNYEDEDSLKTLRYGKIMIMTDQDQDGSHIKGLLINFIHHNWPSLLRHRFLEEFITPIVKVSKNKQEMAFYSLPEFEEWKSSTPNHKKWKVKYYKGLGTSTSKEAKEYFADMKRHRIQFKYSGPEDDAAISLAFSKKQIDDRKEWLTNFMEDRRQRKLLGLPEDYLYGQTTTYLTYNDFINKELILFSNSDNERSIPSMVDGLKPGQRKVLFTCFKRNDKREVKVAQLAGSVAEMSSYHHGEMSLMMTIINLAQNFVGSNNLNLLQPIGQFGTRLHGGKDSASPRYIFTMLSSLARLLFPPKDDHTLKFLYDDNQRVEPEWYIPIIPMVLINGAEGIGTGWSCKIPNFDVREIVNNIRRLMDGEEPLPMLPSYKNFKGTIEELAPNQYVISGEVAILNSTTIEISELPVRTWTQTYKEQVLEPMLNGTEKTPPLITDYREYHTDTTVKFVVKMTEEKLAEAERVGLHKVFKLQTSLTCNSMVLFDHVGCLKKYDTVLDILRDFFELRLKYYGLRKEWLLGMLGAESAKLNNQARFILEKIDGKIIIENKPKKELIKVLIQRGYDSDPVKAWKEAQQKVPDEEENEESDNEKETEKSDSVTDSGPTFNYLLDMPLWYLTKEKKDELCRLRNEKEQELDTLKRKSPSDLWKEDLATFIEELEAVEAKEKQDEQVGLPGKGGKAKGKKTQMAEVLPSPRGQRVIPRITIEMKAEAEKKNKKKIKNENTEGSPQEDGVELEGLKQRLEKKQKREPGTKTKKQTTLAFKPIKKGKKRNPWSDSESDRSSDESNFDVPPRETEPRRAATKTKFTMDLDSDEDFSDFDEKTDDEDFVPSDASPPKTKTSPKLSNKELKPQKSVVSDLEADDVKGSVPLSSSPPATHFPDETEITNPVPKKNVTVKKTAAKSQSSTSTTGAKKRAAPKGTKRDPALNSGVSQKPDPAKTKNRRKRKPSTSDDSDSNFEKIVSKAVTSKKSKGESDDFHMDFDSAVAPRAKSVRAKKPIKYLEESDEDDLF

Row | SMILES | IC50 [1, 8] | IC50 [2, 9] | IC50 [3] | IC50 [4, 10] | inhibition [5] | IC50 ([1]; mda-mb-231) | IC50 ([2]; mcf7) | IC50 ([4]; h357) | IC50 [6] | IC50 [7]
1 | O=C1C=C(NCCCN2CCOCC2)C(=O)c2ccccc21 | 6.4 µM | 6.2 µM | 7.2 µM | 6.9 µM | – | – | – | – | – | –
2 | O=C1c2ccccc2C(=O)c2c1[nH]c1ccccc21 [BENZOCARBAZOLEDIONE] | 5.2 µM | 4.5 µM | 5.8 µM | 5 µM | – | – | – | – | – | –
3 | Cc1ccc(NC2=CC(=O)c3ccccc3C2=O)cc1 | 5.3 µM | 6.4 µM | 5.6 µM | 5.2 µM | Active | – | – | – | – | –
4 | COc1cc2[nH]c3c(c2c(OC)c1OC)C(=O)c1c(OC)cccc1C3=O | – | – | – | – | – | Not Active | Not Active | Not Active | – | –
5 | O=C1c2ccccc2C(=O)c2c1[nH]c1ccc(F)cc21 | 4.8 µM | 4.7 µM | 7.5 µM | 5.6 µM | Active | – | – | – | – | –
6 | Cn1c2c(c3ccccc31)C(=O)c1ccccc1C2=O | 6.5 µM | 5.4 µM | 8.4 µM | 7.3 µM | Active | – | – | – | – | –
7 | O=C1C=C(NCCCO)C(=O)c2ccccc21 | 9.8 µM | 9.6 µM | 10.3 µM | 9.9 µM | – | – | – | – | – | –
8 | Cc1cc2[nH]c3c(c2cc1C)C(=O)c1ccccc1C3=O | 6.3 µM | 4.2 µM | 7 µM | 6.1 µM | – | – | – | – | – | –
9 | COc1cc2[nH]c3c(c2c(OC)c1OC)C(=O)c1ccccc1C3=O | 8.1 µM | 8.2 µM | 10.5 µM | 9.4 µM | Active | – | – | – | – | –
10 | COc1ccc(NC2=CC(=O)c3ccccc3C2=O)cc1OC | 6.2 µM | 6.4 µM | 6.3 µM | 6.2 µM | Active | – | – | – | – | –
11 | CCC(C)c1ccc2[nH]c3c(c2c1)C(=O)c1ccccc1C3=O (configuration not stated) | 5.4 µM | 6.3 µM | 9 µM | 7.1 µM | Active | – | – | – | – | –
12 | O=C1C=C(Nc2nccs2)C(=O)c2ccccc21 | 6.3 µM | 6.4 µM | 7.6 µM | 7.2 µM | – | – | – | – | – | –
13 | COc1cc(NC2=CC(=O)c3ccccc3C2=O)cc(OC)c1OC | 6.9 µM | 7 µM | 8.4 µM | 6.8 µM | – | – | – | – | – | –
14 | COc1cc(NC2=CC(=O)c3c(O)cccc3C2=O)cc(OC)c1OC | – | – | – | – | – | Not Active | Not Active | Not Active | – | –
15 | COc1cc2[nH]c3c(c2cc1OC)C(=O)c1ccccc1C3=O | 7.4 µM | 8.4 µM | 10.2 µM | 8.7 µM | – | – | – | – | – | –
16 | COc1cc(NC2=CC(=O)c3c(OC)cccc3C2=O)cc(OC)c1OC | – | – | – | – | – | Not Active | Not Active | Not Active | – | –
17 | CN(C)CCCNC1=CC(=O)c2ccccc2C1=O | 6.4 µM | 6.3 µM | 8.1 µM | 7.3 µM | – | – | – | – | – | –
18 | O=C1C=C(Nc2ccc3c(c2)OCO3)C(=O)c2ccccc21 | 9.4 µM | 9.6 µM | 10.2 µM | 10.4 µM | – | – | – | – | – | –
19 | CCC(C)c1ccc(NC2=CC(=O)c3ccccc3C2=O)cc1 (configuration not stated) | 4.2 µM | 4.2 µM | 5.2 µM | 4 µM | – | – | – | – | – | –
20 | O=C1c2ccccc2C(=O)c2c1[nH]c1ccc(Cl)cc21 | 4.4 µM | 4.5 µM | 6.3 µM | 4.6 µM | Active | – | – | – | – | –

Row | SMILES | IC50 [1, 8] | IC50 [2, 9] | IC50 [3] | IC50 [4, 10] | inhibition [5] | IC50 ([1]; mda-mb-231) | IC50 ([2]; mcf7) | IC50 ([4]; h357) | IC50 [6] | IC50 [7]
21 | O=C1c2ccccc2C(=O)c2c1[nH]c1cc(Cl)ccc21 | 5.5 µM | 4.4 µM | 7.3 µM | 6.5 µM | Active | – | – | – | – | –
22 | Cc1ccc(NC2=CC(=O)c3ccccc3C2=O)cc1C | 5.9 µM | 5.3 µM | 7.7 µM | 6.4 µM | – | – | – | – | – | –
23 | O=C1c2ccccc2C(=O)c2c1[nH]c1cc(F)c(F)cc21 | – | – | – | – | – | Not Active | Not Active | Not Active | – | –
24 | COc1ccc2[nH]c3c(c2c1)C(=O)c1ccccc1C3=O | 8.7 µM | 8 µM | 10.5 µM | 9.6 µM | – | – | – | – | – | –
25 | O=C1C=C(Nc2cnccn2)C(=O)c2ccccc21 | 7 µM | 7.2 µM | 9 µM | 8.1 µM | – | – | – | – | – | –
26 | COc1cccc2c1C(=O)c1c([nH]c3ccccc13)C2=O | 8.9 µM | 9.8 µM | 10.4 µM | 10.5 µM | – | – | – | – | – | –
27 | COc1cc([C@@H]2c3cc4c(cc3[C@@H](O[C@@H]3O[C@@H]5CO[C@@H](C)O[C@H]5[C@H](O)[C@H]3O)[C@H]3COC(=O)[C@H]23)OCO4)cc(OC)c1O [ETOPOSIDE] | 48 µM | 45 µM | 22 µM | 32 µM | – | – | – | – | > 120 µM | 42 µM
28 | O=C1C=C(Nc2ccccc2)C(=O)c2ccccc21 | 5.3 µM | 4.4 µM | 5.6 µM | 4.2 µM | – | – | – | – | – | –
29 | COc1cccc2c1C(=O)C=C(Nc1ccccc1)C2=O | 6.2 µM | 6 µM | 7.7 µM | 6.4 µM | – | – | – | – | – | –
30 | O=C1C=C(Nc2ccc(F)cc2)C(=O)c2ccccc21 | 4.9 µM | 4.1 µM | 5.2 µM | 3.8 µM | – | – | – | – | – | –
31 | COc1ccc(NC2=CC(=O)c3ccccc3C2=O)cc1 | 4.8 µM | 4.5 µM | 5.5 µM | 4.6 µM | – | – | – | – | – | –
32 | O=C1C=C(Nc2ccc(F)c(F)c2)C(=O)c2ccccc21 | 7 µM | 7.2 µM | 9.4 µM | 8.4 µM | – | – | – | – | – | –
33 | Cc1ccc2[nH]c3c(c2c1)C(=O)c1ccccc1C3=O | 4.9 µM | 5.2 µM | 8 µM | 6.1 µM | Active | – | – | – | – | –
34 | CN1CCN(CCCNC2=CC(=O)c3ccccc3C2=O)CC1 | 10 µM | 10.4 µM | 10.9 µM | 10.9 µM | – | – | – | – | – | –
35 | O=C1C=C(Nc2cccc(Cl)c2)C(=O)c2ccccc21 | 4.1 µM | 4.2 µM | 5.2 µM | 4 µM | – | – | – | – | – | –
36 | COc1cc2[nH]c3c(c2c(OC)c1OC)C(=O)c1c(O)cccc1C3=O | – | – | – | – | – | Not Active | Not Active | Not Active | – | –
37 | O=C1C=C(Nc2ccc(Cl)cc2)C(=O)c2ccccc21 | 3.9 µM | 4.1 µM | 4.9 µM | 4.8 µM | – | – | – | – | – | –
38 | O=C1C(Nc2ccccc2)=CC(=O)c2c(O)cccc21 | 3.7 µM | 3.8 µM | 4.2 µM | 4.9 µM | – | – | – | – | – | –
39 | COc1ccc2c3c([nH]c2c1)C(=O)c1ccccc1C3=O | 7.5 µM | 7 µM | 9.8 µM | 7.9 µM | – | – | – | – | – | –
